Three compounds from patent US8193156B1, “Dipeptides incorporating selenoamino acids with enhanced bioavailability—synthesis, pharmaceutical and cosmeceutical applications thereof” (Sami Labs Ltd, priority 2006, dated 2012) can be followed below.

Data set [1] in a line: Aqueous solubility measurements. It is filed as physicochemical. Conditions: for Aqueous solubility: in water. An excerpt:
Aqueous solubility measurements were done on L-Se-methylselenocysteine and γ-L-glutamyl-L-Se-methylselenocysteine; The solubility of L-Se-methylselenocysteine was ca. 10% with dissolution occurring in two hours in water.

On to `C[Se]CC[C@H](NC(=O)CC[C@H](N)C(=O)O)C(=O)O`, for which the melting point (commonly the temperature, or range, at which the solid turns liquid) lay in the range of 192 to 194 °C.

For `C[Se]C[C@H](N)C(=O)O` [L-Se-methylselenocysteine, reference compound], in data set [1], the “Time for dissolution in water” value is recorded as “two hours” and the Aqueous solubility result is on record as “ca. 10%”.

As for `C[Se]C[C@H](NC(=O)CC[C@H](N)C(=O)O)C(=O)O` [γ-L-glutamyl-L-Se-methylselenocysteine, γ-L-glutamyl-Se-methyl-L-selenocysteine], the melting point is 159 to 161 °C. Also, in data set [1], the “Time for dissolution in water” value is given as “thirty minutes” and the Aqueous solubility entry is “ca. 25%”.
